ChEMBL document CHEMBL1909294, “Translating clinical findings into knowledge in drug safety evaluation--drug induced liver injury prediction system (DILIps)” (PLoS Comput Biol, 2011)

Assays:
Hepatotoxicity [1] = test system: Hepatotoxicity;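 for HepSE elevated liver function tests: hepatic side effect score for raised liver function tests, as recorded in the DILIps training set used for predicting drug-induced liver injury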;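 for HepSE hepatitis: Hepatitis-related hepatic side effect score taken from the training data of DILIps, a prediction system for drug-induced liver injury; call rule not given here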;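 for HepSE hepatomegaly: hepatic side effect score for hepatomegaly, taken from the training set of the DILIps drug-induced liver injury prediction system; call rule not given here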;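 for HepSE jaundice: Jaundice-related hepatic side-effect score drawn from the training data of the DILIps (drug-induced liver injury prediction system); call rule not given here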;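 for HepSE liver fatty: hepatic side effect score for fatty liver, taken from the DILIps training set for predicting drug-induced liver injury; call rule not given here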;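 for HepSE liver function tests abnormal: hepatic side effect score taken from the DILIps (drug-induced liver injury prediction system) training data, here covering abnormal liver function test findings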
Hepatotoxicity [2] = test system: Hepatotoxicity; remark: listed apart in the source;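 for HepSE elevated liver function tests: hepatic side effect score for raised liver function tests, as recorded in the DILIps training set used for predicting drug-induced liver injury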;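 for HepSE hepatitis: Hepatitis-related hepatic side effect score taken from the training data of DILIps, a prediction system for drug-induced liver injury; call rule not given here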;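 for HepSE hepatomegaly: hepatic side effect score for hepatomegaly, taken from the training set of the DILIps drug-induced liver injury prediction system; call rule not given here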;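 for HepSE jaundice: Jaundice-related hepatic side-effect score drawn from the training data of the DILIps (drug-induced liver injury prediction system); call rule not given here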;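 for HepSE liver fatty: hepatic side effect score for fatty liver, taken from the DILIps training set for predicting drug-induced liver injury; call rule not given here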;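 for HepSE liver function tests abnormal: hepatic side effect score taken from the DILIps (drug-induced liver injury prediction system) training data, here covering abnormal liver function test findings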
Hepatotoxicity [3] = test system: Hepatotoxicity; remark: listed apart in the source;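 for HepSE hepatitis: Hepatitis-related hepatic side effect score taken from the training data of DILIps, a prediction system for drug-induced liver injury; call rule not given here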;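 for HepSE hepatomegaly: hepatic side effect score for hepatomegaly, taken from the training set of the DILIps drug-induced liver injury prediction system; call rule not given here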;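 for HepSE jaundice: Jaundice-related hepatic side-effect score drawn from the training data of the DILIps (drug-induced liver injury prediction system); call rule not given here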;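 for HepSE liver fatty: hepatic side effect score for fatty liver, taken from the DILIps training set for predicting drug-induced liver injury; call rule not given here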;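 for HepSE liver function tests abnormal: hepatic side effect score taken from the DILIps (drug-induced liver injury prediction system) training data, here covering abnormal liver function test findings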
Hepatotoxicity [4] = test system: Hepatotoxicity; remark: listed apart in the source;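 for HepSE hepatitis: Hepatitis-related hepatic side effect score taken from the training data of DILIps, a prediction system for drug-induced liver injury; call rule not given here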;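 for HepSE hepatomegaly: hepatic side effect score for hepatomegaly, taken from the training set of the DILIps drug-induced liver injury prediction system; call rule not given here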;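 for HepSE jaundice: Jaundice-related hepatic side-effect score drawn from the training data of the DILIps (drug-induced liver injury prediction system); call rule not given here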;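 for HepSE liver fatty: hepatic side effect score for fatty liver, taken from the DILIps training set for predicting drug-induced liver injury; call rule not given here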;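 for HepSE liver function tests abnormal: hepatic side effect score taken from the DILIps (drug-induced liver injury prediction system) training data, here covering abnormal liver function test findings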
Hepatotoxicity [5] = test system: Hepatotoxicity; remark: listed apart in the source
Hepatotoxicity [6] = test system: Hepatotoxicity; remark: listed apart in the source
Hepatotoxicity [7] = test system: Hepatotoxicity; remark: listed apart in the source
Hepatotoxicity [8] = test system: Hepatotoxicity; remark: listed apart in the source
Hepatotoxicity [9] = test system: Hepatotoxicity; remark: listed apart in the source
Hepatotoxicity [10] = test system: Hepatotoxicity; remark: listed apart in the source
Hepatotoxicity [11] = test system: Hepatotoxicity; remark: listed apart in the source
Hepatotoxicity [12] = test system: Hepatotoxicity; remark: listed apart in the source
Hepatotoxicity [13] = test system: Hepatotoxicity; remark: listed apart in the source
Hepatotoxicity [14] = test system: Hepatotoxicity; remark: listed apart in the source

| Compound | HepSE_hepatitis (Hepatotoxicity [1]) | HepSE_liver function tests abnormal (Hepatotoxicity [2]) | HepSE_hepatomegaly (Hepatotoxicity [3]) | HepSE_liver fatty (Hepatotoxicity [4]) | HepSE_jaundice (Hepatotoxicity [5]) | HepSE_elevated liver function tests (Hepatotoxicity [6]) | HepSE_hepatic failure (Hepatotoxicity [7]) | HepSE_cirrhosis (Hepatotoxicity [8]) | HepSE_hepatic necrosis (Hepatotoxicity [9]) | HepSE_cholelithiasis (Hepatotoxicity [10]) | HepSE_liver disease (Hepatotoxicity [11]) | HepSE_Combined Scores (Hepatotoxicity [12]) | HepSE_bilirubinemia (Hepatotoxicity [13]) | HepSE_cholecystitis (Hepatotoxicity [14]) | other results |
| --- | --- | --- | --- | --- | --- | --- | --- | --- | --- | --- | --- | --- | --- | --- | --- |
| COc1cccc(C2(O)CCCCC2CN(C)C)c1 (stereo unspecified) [TRAMADOL] | 1 | 1 | 0 | 0 | 0 | 0 | 1 | 0 | 0 | 1 | 0 | 5 | 0 | 1 | – |
| CCOC(=O)[C@H](CCc1ccccc1)N[C@@H](C)C(=O)N1[C@H](C(=O)O)C[C@H]2CCCC[C@@H]21 [TRANDOLAPRIL] | 1 | 1 | 0 | 0 | 0 | 0 | 0 | 0 | 0 | 0 | 0 | 2 | 0 | 0 | – |
| N[C@@H]1C[C@H]1c1ccccc1.N[C@H]1C[C@@H]1c1ccccc1 [TRANYLCYPROMINE] | – | – | – | – | – | – | – | – | – | – | – | – | – | – | HepSE_hepatitis (Hepatotoxicity [1]; Liver): 1; HepSE_liver function tests abnormal (Hepatotoxicity [2]; Liver): 0; HepSE_hepatomegaly (Hepatotoxicity [3]; Liver): 0; HepSE_liver fatty (Hepatotoxicity [4]; Liver): 0; HepSE_jaundice (Hepatotoxicity [5]; Liver): 0; HepSE_elevated liver function tests (Hepatotoxicity [6]; Liver): 0; HepSE_hepatic failure (Hepatotoxicity [7]; Liver): 0; HepSE_cirrhosis (Hepatotoxicity [8]; Liver): 0; HepSE_hepatic necrosis (Hepatotoxicity [9]; Liver): 0; HepSE_cholelithiasis (Hepatotoxicity [10]; Liver): 0; HepSE_liver disease (Hepatotoxicity [11]; Liver): 0; HepSE_Combined Scores (Hepatotoxicity [12]; Liver): 1; HepSE_bilirubinemia (Hepatotoxicity [13]; Liver): 0; HepSE_cholecystitis (Hepatotoxicity [14]; Liver): 0 |
| CC(C)OC(=O)CCC/C=C\C[C@@H]1[C@@H](/C=C/[C@@H](O)COc2cccc(C(F)(F)F)c2)[C@H](O)C[C@@H]1O [TRAVOPROST] | 0 | 0 | 0 | 0 | 0 | 0 | 0 | 0 | 0 | 0 | 0 | 0 | 0 | 0 | – |
| O=c1n(CCCN2CCN(c3cccc(Cl)c3)CC2)nc2ccccn12 [TRAZODONE] | 0 | 0 | 0 | 0 | 1 | 0 | 0 | 0 | 0 | 0 | 0 | 2 | 1 | 0 | – |
| CCCCC[C@H](O)CC[C@@H]1[C@H]2Cc3cccc(OCC(=O)O)c3C[C@H]2C[C@H]1O [TREPROSTINIL] | 0 | 0 | 0 | 0 | 0 | 0 | 0 | 0 | 0 | 0 | 0 | 0 | 0 | 0 | – |
| CC1=C(/C=C/C(C)=C/C=C/C(C)=C/C(=O)O)C(C)(C)CCC1 [TRETINOIN] | 1 | 0 | 0 | 0 | 0 | 0 | 0 | 0 | 0 | 0 | 1 | 2 | 0 | 0 | – |
| C[C@]12C=CC(=O)C=C1CC[C@H]1[C@@H]3C[C@@H](O)[C@](O)(C(=O)CO)[C@@]3(C)C[C@H](O)[C@@]12F [TRIAMCINOLONE] | 0 | 0 | 1 | 0 | 0 | 0 | 0 | 0 | 0 | 0 | 0 | 1 | 0 | 0 | – |
| Cc1nnc2n1-c1ccc(Cl)cc1C(c1ccccc1Cl)=NC2 [TRIAZOLAM] | 0 | 0 | 0 | 0 | 1 | 0 | 1 | 0 | 0 | 0 | 0 | 2 | 0 | 0 | – |
